Measured values taken from US10098895B2, “Treatment of symptoms related to neurodegenerative disorders through pharmacological dermal activation of cranial nerves” (GLIA, LLC, priority 2016, dated 2018).

Tests used:
[1] = tested on: chronic ocular GVHD; assay: Example 6: third case of chronic ocular GVHD, Tearscope examination; assay type: in vivo, human; conditions: progesterone 1% to forehead, single dose
Description: A patient with chronic ocular GVHD was examined and found to have ocular surface disease in both eyes, including filamentary keratitis. Upon examination by Tearscope there was a lack of tear film production evident in both eyes along with pronounced filaments in the left eye. They were treated with progesterone 1% to their forehead and re-examined 50 minutes later by Tearscope.

[2] = tested on: Parkinson's disease symptoms; assay: Example 1: Parkinson's disease patient, dermal application to forehead and ear conchae
Description: A person was diagnosed with the early stages of Parkinson's disease in December of 2014. Their symptoms included tremors in the hands, impaired short term memory, slow and uncontrolled rigid movements while walking and eating, and declining ocular blink function. The patient also had dry eyes with hyper-tearing, burning, and itching.
The patient was also treated with progesterone 1% on the forehead initially once daily beginning in March 2015. […] The progesterone was applied as needed for about a year.
Instead of the prescribed regimen, the patient began dermal application of dronabinol 1.25 mg 2 times daily to three sites: (i) the forehead, (ii) the concha of the left ear, and (iii) the concha of the right ear. Each dose of 1.25 mg was divided equally between the three application sites. This treatment regimen began Friday Jun. 10, 2016 concurrent with the discontinuation of rasagiline.
In February 2017, the patient, who suffers from debilitating moderate spinal stenosis, started taking Azilect (rasagiline) and carbidopa-levodopa to improve their walking and flexibility. […] The patient decided that, together with the prescribed medications, they would switch from dronabinol to topical testosterone gel applied to the forehead and ear conchae to see if this would impact their longstanding low testosterone levels.
In March 2017, topical testosterone gel application was instituted as an adjunct to is the prescribed Azilect and carbidopa-levodopa.
The patient voluntarily stopped topical testosterone for 3 weeks in June 2017. […] At the end of 3 weeks, topical testosterone was re-instituted as an adjunct to the prescribed medications.

[3] = tested on: Parkinson's tremor and ocular graft-versus-host disease; assay: Example 3: Parkinson's tremor and co-morbid ocular graft-versus-host disease, topical progesterone; assay type: in vivo, human
From the text: A person was diagnosed with Parkinson's disease over 3 years ago, leukemia about 2 years ago, and ocular graft versus host disease resulting from allogeneic stem cell treatment for the leukemia. The patient has been on oral carbidopa-levodopa for at least 2 years.
The patient started treatment with twice daily progesterone 1% gel applied to the forehead to promote ocular secretion of tear film, and to resolve other symptoms and signs of surface eye disease. […] On a follow up visit 5 weeks later, they reported continued relief from burning and photophobia.
When the patient was first seen in June 2016, they had noticeable significant tremors in both hands and multiple fingers. These were related to their Parkinson's disease as diagnosed and included muscle contractions, i.e., dyskinesia, related to their carbidopa-levodopa oral treatment.
During the 5-week ophthalmologist follow-up visit, the progesterone treatment regimen was performed in the office in modified form. More specifically, the daily dose of progesterone was divided, with 1 mg applied to the concha of each ear, excluding the forehead, to which progesterone had been applied 6 hours earlier. The patient reported improved moisture and comfort in both eyes approximately 2 minutes post application.
The patient had taken carbidopa-levodopa extended release medication at 6 am that morning, with an added immediate release dose at 8 am. The visit to the ophthalmologist was at 2 pm. At that point there was uncontrolled movement of the hands (dyskinesia) along with finger vibrations. The patient reported that the usual duration of efficacy of their carbidopa-levodopa regimen was 4 hours. Normally they would have taken another carbidopa-levodopa dose at 2 pm. Instead, progesterone was applied to the concha of both ears as described, supra.

[4] = tested on: herpes ophthalmicus and herpes keratitis; assay: Example 8: herpes ophthalmicus and herpes keratitis patient; assay type: in vivo, human
From the text: A patient experienced an episode of herpes ophthalmicus and herpes keratitis in September 2003, resulting in thinning melt of the left cornea, loss of vision, inflammation, neuralgia, and a rash of blisters to the left forehead, upper nose, and temple with a subsequent full left-face palsy droop, which required multiple cosmetic surgical procedures to provide some symmetry to the face and partial closure to the eyelids of the left eye.
No corneal graft to the left eye could be attempted due to recurrent thinning of the full cornea and inflammation of the vasculature. The patient was treated with ophthalmic prednisolone, topical and systemic antivirals, topical antibiotics, bandage lens, punctal plugs, and over-the-counter artificial tears and gels. This treatment regimen was continued until January 2011 when the cornea thinned to probable melt-through, necessitating corneal patch surgery. Just prior to the surgery, the patient's vision was measured at 20/2000, or finger vision.
The patient started applying 1% progesterone to their forehead twice daily just before corneal patch surgery planned for January 2011. The dose of progesterone was approximately 1 mg per application.
In September 2014, corneal tissue had sufficiently epithelialized at the perimeter to attempt a corneal graft, which was successfully completed. Progesterone 1% was applied daily to the forehead post-surgery. Within 9 months vision was restored to best correct vision pinhole 20/50.
In February 2015, the patient's visual acuity decreased as a result of the rejection of cells at the lower part of the graft. Moderate central staining continued to persist in a band where eyelids could not close. Intraocular pressure (TOP) in the left eye rose to 22 mmHg. The patient was placed on a treatment regimen that included Prednisolone Forte 6× plus Restasis for rejection 2× daily and oral valacycovir, together with mechanically taping the eyelid closed at night.
In May 2016, the patient initiated a course of twice daily dronabinol treatment, 0.5 mg each dose, to both ears. Through July, stabilization was achieved, and all other medications were discontinued. […] Visual acuity improved to 20/40.

[5] = tested on: chronic ocular GVHD; assay: Example 4: chronic ocular GVHD, progesterone 1% to the forehead; assay type: in vivo, human; conditions: after 4 weeks
From the text: A patient with chronic ocular GVHD, upon examination, had numerous ocular surface conditions as well as damaged Meibomian glands and ocular disease behind the eye. There was notable ocular surface disease including no visible production of tear film observed by Tearscope, profuse exudate in eyes, lid sticking, and recurring filamentary keratitis.

CC(=O)[C@H]1CC[C@H]2[C@@H]3CCC4=CC(=O)CC[C@]4(C)[C@H]3CC[C@]12C [progesterone]
comfort, patient-reported [1]: improved comfort
filaments in the left eye ([1]; 50 minutes later): flushing of the filaments in the left eye
tear film production by Tearscope ([1]; 50 minutes later): production of tear film in secretions in both eyes
adverse events ([2]; human, in vivo): no adverse events were noted
ocular symptoms of burning and itching ([2]; progesterone 1% on the forehead, initially once daily, then as needed, on oral rasagiline): relieved their ocular symptoms of burning and itching
dry eye disease symptoms ([2]; progesterone 1% to the forehead once every week, July 2016 to August 2017): fully manage dry eye disease symptoms
onset of tremor cessation ([3]; low dose progesterone USP added to conchae of outer ears): rapid cessation of tremor within minutes
time to improved moisture and comfort in both eyes ([3]; progesterone 1 mg to the concha of each ear): approximately 2 minutes
reduction of tremors in hands and fingers in frequency and amplitude ([3]; progesterone 1 mg to the concha of each ear, 2 minutes post application): about 90%
tear film secretion ([3]; progesterone 1% gel twice daily to forehead, after initial treatment): tear film secretion was improved
photophobia and burning ([3]; progesterone 1% gel twice daily to forehead, after initial treatment, on oral carbidopa-levodopa): immediate relief of photophobia and burning
facial masking and facial expression ([3]; progesterone applied to ear conchae regions): decreased facial masking and more voluntary facial expressions
hand and finger tremors ([3]; progesterone applied to the forehead only, 5 weeks): no change seen in the hand and finger tremors
tremor ([3]; topical progesterone to both conchae and forehead, carbidopa-levodopa at lower dosing frequency, 5 days): remained tremor-free until the subsequent visit 5 days later
corneal thinning ([4]; 1% progesterone to forehead twice daily, approximately 1 mg per application, from January 2011): corneal thinning stabilized
best correct vision pinhole ([4]; Progesterone 1% daily to forehead after corneal graft, within 9 months): 20/50
corneal melt-through ([4]; progesterone treatment continued over two years): without corneal melt-through
tear film breakup and meibomian glands ([4]; when using Progesterone 1%): tear film breakup was normal and meibomian glands functioned well
exudate in both eyes [5]: noticeable decrease in exudate
lid sticking and friction [5]: improvement in lid sticking and friction
tear film production by Tearscope [5]: tear film production was observed
